This is an account of results in ChEMBL document CHEMBL4420062, “Tfpi inhibitors and methods of use” (2013).

In data set [1] the test system is Plasma. Nature of the data set: (§1) Effect on blood coagulation parameters in plasma isolated from hemophilia A patient assessed as clotting time at […] by rotation thromboelastography (reference value: 2907 secs). Type of data set: functional, Homo sapiens.
The test system of data set [2] is Plasma. Described as §1. Type of data set: functional, Homo sapiens. The source holds these as a separate data set.
In data set [3] the test system is Plasma. Nature of the data set: Effect on blood coagulation parameters in plasma isolated from hemophilia A patient assessed as clotting time at 40 nM by rotation thromboelastography (reference value: 2907 secs). Format: functional, Homo sapiens.
Data set [4] relates to Plasma. Nature of the data set: Effect on blood coagulation parameters in plasma isolated from hemophilia A patient assessed as clotting time at 120 nM by rotation thromboelastography (reference value: 2907 secs). Type of data set: functional, Homo sapiens.
Data set [5] has as its system Plasma. The data set is described as follows: (§2) Effect on blood coagulation parameters in plasma isolated from hemophilia A patient assessed as clot formation time at […] by rotation thromboelastography (reference value: 1540 secs). Format: functional, Homo sapiens.
Data set [6] relates to Plasma. The description is as §2. Type of data set: functional, Homo sapiens. This is another data set of the same source.
Data set [7] has as its system Plasma. Nature of the data set: Effect on blood coagulation parameters in plasma isolated from hemophilia A patient assessed as clot formation time at 40 nM by rotation thromboelastography (reference value: 1540 secs). Type of data set: functional, Homo sapiens.
The test system of data set [8] is Plasma. The data set is described as follows: Effect on blood coagulation parameters in plasma isolated from hemophilia A patient assessed as clot formation time at 120 nM by rotation thromboelastography (reference value: 1540 secs). Format: functional, Homo sapiens.
Data set [9] deals with Plasma. The data set is described as follows: Effect on blood coagulation parameters in plasma isolated from hemophilia A patient assessed as maximum clot firmness at 40 nM by rotation thromboelastography. Format: functional, Homo sapiens.
Data set [10] relates to Plasma. The data set is described as follows: Effect on blood coagulation parameters in plasma isolated from hemophilia A patient assessed as maximum clot firmness at 120 nM by rotation thromboelastography. Type of data set: functional, Homo sapiens.
Data set [11] relates to Plasma. Nature of the data set: (§3) Effect on blood coagulation parameters in plasma isolated from hemophilia A patient at […] by rotation thromboelastography (reference value: 0%). Type of data set: functional, Homo sapiens.
The test system of data set [12] is Plasma. The description is as §3. Type of data set: functional, Homo sapiens. The source holds these as a separate data set.
The test system of data set [13] is Plasma. The data set is described as follows: Effect on blood coagulation parameters in plasma isolated from hemophilia A patient at 40 nM by rotation thromboelastography (reference value: 0%). Type of data set: functional, Homo sapiens.
Data set [14] relates to Plasma. Nature of the data set: Effect on blood coagulation parameters in plasma isolated from hemophilia A patient at 120 nM by rotation thromboelastography (reference value: 0%). Type of data set: functional, Homo sapiens.
The nature of data set [15]: Stability in human plasma assessed as parent compound remaining after 24 hrs. Format: ADME, cell-free. Particulars: read-out: Stability.
Data set [16] is described as follows: Stability in mouse plasma assessed as parent compound remaining after 24 hrs. Format: ADME, cell-free. Particulars: read-out: Stability.

As to `CCN1C(=O)CC(SC[C@H](NC(=O)[C@H](CC(C)C)NC(=O)[C@H](CCCCN)NC(=O)[C@H](C)NC(=O)C(C)(C)NC(=O)[C@H](CC(C)C)NC(=O)[C@H](CCCNC(=N)N)NC(=O)[C@H](CCC(=O)O)NC(=O)[C@H](Cc2ccccc2)NC(=O)[C@H](Cc2ccc(O)cc2)NC(=O)CNC(=O)[C@H](CC(=O)O)NC(=O)[C@@H](NC(=O)[C@H](Cc2cnc[nH]2)NC(=O)[C@@H](NC(=O)[C@H](CC(N)=O)NC(=O)[C@H]2CCCN2C(=O)[C@H](CCCCN)NC(=O)[C@H](CO)NC(=O)[C@H](CCC(N)=O)NC(=O)[C@H](Cc2ccccc2)NC(C)=O)C(C)C)C(C)C)C(N)=O)C1=O` (stereo partly specified), the Time is 2901 s with Plasma [1]; 2249 s in the data set on Plasma [2]; 1143 s in the data set on Plasma [3]; 853 s in the data set with Plasma [4]; 2488 s in the data set with Plasma [5]; 1480 s in the data set on Plasma [6]. The results for the Time in the data set on Plasma [7] and in the data set on Plasma [8] were 457 s and 219 s, respectively. The Activity with Plasma [9] is 64 mm; with Plasma [10], 64 mm; in the data set on Plasma [11] it was 0%; in the data set with Plasma [12], 44%; in the data set on Plasma [13], 119%; in the data set on Plasma [14], 139%. Moreover, the remaining at 24 h in data set [15] lay in the range of 10 to 23.8%; in data set [16], 10 to 15.9%.
